ChEMBL document CHEMBL4765379, “Synthesis and biological evaluation of diaryl urea derivatives designed as potential anticarcinoma agents using de novo structure-based lead optimization approach” (Eur J Med Chem, 2020)

How the values were obtained:
HT-29 [1] = assay: Antiproliferative activity against human HT-29 cells assessed as reduction in cell growth incubated for 48 hrs by MTT assay; assay type: functional, cell-based; conditions: HT-29, 48 h
A549 = assay: Antiproliferative activity against human A549 cells assessed as reduction in cell growth incubated for 48 hrs by MTT assay; assay type: functional, cell-based; conditions: A549, 48 h
HT-29 [2] = assay: Induction of cell cycle arrest in human HT-29 cells assessed as S phase accumulation at 15 uM incubated for 48 hrs by PI staining based flow cytometry analysis (reference value: 36.98 %); assay type: functional
HT-29 [3] = assay: Induction of apoptosis in human HT-29 cells assessed as necrotic cells at 15 uM incubated for 48 hrs by annexin V-FITC and PI staining based flow cytometry analysis (reference value: 9.68 %); assay type: functional
HT-29 [4] = assay: Induction of cell cycle arrest in human HT-29 cells assessed as G2 phase accumulation at 15 uM incubated for 48 hrs by PI staining based flow cytometry analysis (reference value: 11.7 %); assay type: functional
HT-29 [5] = assay: Induction of cell cycle arrest in human HT-29 cells assessed as G1 phase accumulation at 15 uM incubated for 48 hrs by PI staining based flow cytometry analysis (reference value: 56.39 %); assay type: functional
HT-29 [6] = assay: Induction of apoptosis in human HT-29 cells assessed as viable cells at 15 uM incubated for 48 hrs by annexin V-FITC and PI staining based flow cytometry analysis (reference value: 88.2 %); assay type: functional; conditions: read-out: Activity
HT-29 [7] = assay: Induction of cell cycle arrest in human HT-29 cells assessed as subG1 phase accumulation at 15 uM incubated for 48 hrs by PI staining based flow cytometry analysis (reference value: 0.06 %); assay type: functional
HT-29 [8] = assay: Induction of apoptosis in human HT-29 cells assessed as early apoptotic cells at 15 uM incubated for 48 hrs by annexin V-FITC and PI staining based flow cytometry analysis (reference value: 1.01 %); assay type: functional

| Compound | IC50 (HT-29 [1]) [µM] | IC50 (A549) [µM] | further results |
| --- | --- | --- | --- |
| O=C(Nc1ccc(OC(=O)c2ccc(Cl)cc2)cc1)Nc1ccc(Cl)c(C(F)(F)F)c1 | 8.32 | 6.62 | – |
| COc1ccc(C(=O)Oc2ccc(NC(=O)Nc3ccccc3)cc2)cc1 | 175 | 60.2 | – |
| O=C(Nc1ccccc1)Nc1ccc(OC(=O)c2ccc([N+](=O)[O-])cc2)cc1 | 185 | 120 | – |
| CC(=O)c1cccc(NC(=O)Nc2ccc(OC(=O)c3cc4cc([N+](=O)[O-])ccc4s3)cc2)c1 | 457 | 61.5 | – |
| O=C(Nc1ccc(OC(=O)c2cc3cc([N+](=O)[O-])ccc3s2)cc1)Nc1ccc(Oc2ccccc2)cc1 | 13.3 | 25.2 | – |
| O=C(Nc1ccccc1)Nc1ccc(OC(=O)c2ccccc2)cc1 | 123 | 81.2 | – |
| CNC(=O)c1cc(Oc2ccc(NC(=O)Nc3ccc(Cl)c(C(F)(F)F)c3)cc2)ccn1 [SORAFENIB] | 17.3 | 5.62 | Activity (HT-29 [2]): 12.19%; Activity (HT-29 [3]): 8.72%; Activity (HT-29 [4]): 14.54%; Activity (HT-29 [5]): 75.23%; viability at 15 µM (HT-29 [6]): 81.3%; Activity (HT-29 [7]): 1.69%; Activity (HT-29 [8]): 5.76% |
| O=C(Nc1ccccc1)Nc1ccc(OC(=O)Cc2ccccc2)cc1 | 185 | 153 | – |
